Source: patent US11117900B2 (Vertex Pharmaceuticals Incorporated, priority 2012, dated 2021)

tested on: HCT116 colorectal cancer cells; test: Cisplatin sensitization assay (96 h MTS cell viability); assay type: cell-based; settings: Cisplatin sensitization value;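 further: compound concentration needed to lower the IC50 of Cisplatin alone by a set fold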
Method in brief: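 HCT116 cells were dosed simultaneously with compound and cisplatin as a full matrix of 2-fold serial dilutions from 10 μM top final concentration. Incubation was 96 h at 37° C., 5% CO2, followed by 1 h with MTS reagent for the viability read-out. Sensitization values were binned into +++, ++ and + categories.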

SMILES	Cisplatin Sensitization Assay
Nc1nn2cc(F)cnc2c1C(=O)Nc1cncc(F)c1N1CCN(C2CCOC2)CC1 (centres unmarked) [I-N-122, 2-amino-6-fluoro-N-(5-fluoro-4-(4-(tetrahydrofuran-3-yl)piperazin-1-yl)pyridin-3-yl)pyrazolo[1,5-a]pyrimidine-3-carboxamide]	++ (Compounds with a Cisplatin sensitization value >0.02 μM but <0.2 μM are marked with “++.”)
Cc1cncc(NC(=O)c2c(N)nn3cc(F)cnc23)c1N1CCN(C2CCOCC2)CC1 [I-N-123, 2-amino-6-fluoro-N-(5-methyl-4-(4-(tetrahydro-2H-pyran-4-yl)piperazin-1-yl)pyridin-3-yl)pyrazolo[1,5-a]pyrimidine-3-carboxamide]	++ (Compounds with a Cisplatin sensitization value >0.02 μM but <0.2 μM are marked with “++.”)
Nc1nn2cc(F)cnc2c1C(=O)Nc1cncc(Cl)c1N1CCN(C2CCOC2)CC1 (centres unmarked) [I-N-124, 2-amino-N-(5-chloro-4-(4-(tetrahydrofuran-3-yl)piperazin-1-yl)pyridin-3-yl)-6-fluoropyrazolo[1,5-a]pyrimidine-3-carboxamide]	+++ (Compounds with a Cisplatin sensitization value of <0.02 μM are marked with “+++.”)
Nc1nn2cc(F)cnc2c1C(=O)Nc1cncc(F)c1N1CCN([C@H]2CCOC2)CC1 [I-N-125, (S)-2-amino-6-fluoro-N-(5-fluoro-4-(4-(tetrahydrofuran-3-yl)piperazin-1-yl)pyridin-3-yl)pyrazolo[1,5-a]pyrimidine-3-carboxamide]	+++ (Compounds with a Cisplatin sensitization value of <0.02 μM are marked with “+++.”)
Nc1nn2cc(F)cnc2c1C(=O)Nc1cncc(Cl)c1N1CCNCC1 [I-N-126, 2-amino-N-(5-chloro-4-(piperazin-1-yl)pyridin-3-yl)-6-fluoropyrazolo[1,5-a]pyrimidine-3-carboxamide]	+++ (Compounds with a Cisplatin sensitization value of <0.02 μM are marked with “+++.”)
COCCN1CCN(c2c(F)cncc2NC(=O)c2c(N)nn3cc(F)cnc23)CC1 [I-N-127, 2-amino-6-fluoro-N-(5-fluoro-4-(4-(2-methoxyethyl)piperazin-1-yl)pyridin-3-yl)pyrazolo[1,5-a]pyrimidine-3-carboxamide]	+++ (Compounds with a Cisplatin sensitization value of <0.02 μM are marked with “+++.”)
CN1CCC(C(=O)N2CCN(c3c(F)cncc3NC(=O)c3c(N)nn4cc(F)cnc34)CC2)CC1 [I-N-128, 2-amino-6-fluoro-N-(5-fluoro-4-(4-(1-methylpiperidine-4-carbonyl)piperazin-1-yl)pyridin-3-yl)pyrazolo[1,5-a]pyrimidine-3-carboxamide]	+++ (Compounds with a Cisplatin sensitization value of <0.02 μM are marked with “+++.”)
Nc1nn2cc(F)cnc2c1C(=O)Nc1cncc(F)c1N1CCN(C(=O)C2CN3CCC2CC3)CC1 (centres unmarked) [I-N-130, 2-amino-6-fluoro-N-(5-fluoro-4-(4-(quinuclidine-3-carbonyl)piperazin-1-yl)pyridin-3-yl)pyrazolo[1,5-a]pyrimidine-3-carboxamide]	++ (Compounds with a Cisplatin sensitization value >0.02 μM but <0.2 μM are marked with “++.”)
CN1CC[C@@H](OC2CCN(c3ccncc3NC(=O)c3c(N)nn4cc(F)cnc34)CC2)C1 [I-N-131]	+++ (Compounds with a Cisplatin sensitization value of <0.02 μM are marked with “+++.”)
CN1CC[C@@H](OC2CCN(c3c(F)cncc3NC(=O)c3c(N)nn4cc(F)cnc34)CC2)C1 [I-N-132, (R)-2-amino-6-fluoro-N-(5-fluoro-4-(4-((1-methylpyrrolidin-3-yl)oxy)piperidin-1-yl)pyridin-3-yl)pyrazolo[1,5-a]pyrimidine-3-carboxamide]	+++ (Compounds with a Cisplatin sensitization value of <0.02 μM are marked with “+++.”)
CN1CCN(c2ccncc2NC(=O)c2c(N)nn3cc(F)cnc23)CC12CCOCC2 [I-N-133, 2-amino-6-fluoro-N-(4-(1-methyl-9-oxa-1,4-diazaspiro[5.5]undecan-4-yl)pyridin-3-yl)pyrazolo[1,5-a]pyrimidine-3-carboxamide]	++ (Compounds with a Cisplatin sensitization value >0.02 μM but <0.2 μM are marked with “++.”)
Nc1nn2cc(F)cnc2c1C(=O)Nc1cncc(F)c1N1CCN(C(=O)C23CCN(CC2)CC3)CC1 [I-N-134, 2-amino-6-fluoro-N-(5-fluoro-4-(4-(quinuclidine-4-carbonyl)piperazin-1-yl)pyridin-3-yl)pyrazolo[1,5-a]pyrimidine-3-carboxamide]	+ (Compounds with a Cisplatin sensitization value >0.2 μM but <5 μM are marked with “+.”)
Nc1nn2cc(F)cnc2c1C(=O)Nc1cncc(F)c1N1CCN2CCOC[C@H]2C1 [I-N-135, (R)-2-amino-6-fluoro-N-(5-fluoro-4-(hexahydropyrazino[2,1-c][1,4]oxazin-8(1H)-yl)pyridin-3-yl)pyrazolo[1,5-a]pyrimidine-3-carboxamide]	+++ (Compounds with a Cisplatin sensitization value of <0.02 μM are marked with “+++.”)
Nc1nn2cc(F)cnc2c1C(=O)Nc1cnccc1N1CCN2C(=O)COCC2C1 (centres unmarked) [I-N-136, 2-amino-6-fluoro-N-(4-(4-oxohexahydropyrazino[2,1-c][1,4]oxazin-8(1H)-yl)pyridin-3-yl)pyrazolo[1,5-a]pyrimidine-3-carboxamide]	++ (Compounds with a Cisplatin sensitization value >0.02 μM but <0.2 μM are marked with “++.”)
Nc1nn2cc(F)cnc2c1C(=O)Nc1cncc(F)c1N1CCN2CCOC[C@@H]2C1 [I-N-137, (S)-2-amino-6-fluoro-N-(5-fluoro-4-(hexahydropyrazino[2,1-c][1,4]oxazin-8(1H)-yl)pyridin-3-yl)pyrazolo[1,5-a]pyrimidine-3-carboxamide]	++ (Compounds with a Cisplatin sensitization value >0.02 μM but <0.2 μM are marked with “++.”)
CN1CCN(c2c(F)cncc2NC(=O)c2c(N)nn3cc(C(C)(C)C#N)cnc23)CC1 [I-N-138, 2-amino-6-(2-cyanopropan-2-yl)-N-(5-fluoro-4-(4-methylpiperazin-1-yl)pyridin-3-yl)pyrazolo[1,5-a]pyrimidine-3-carboxamide]	++ (Compounds with a Cisplatin sensitization value >0.02 μM but <0.2 μM are marked with “++.”)
CC(C)(O)CN1CCN(c2c(F)cncc2NC(=O)c2c(N)nn3cc(F)cnc23)CC1 [I-N-139, 2-amino-6-fluoro-N-(5-fluoro-4-(4-(2-hydroxy-2-methylpropyl)piperazin-1-yl)pyridin-3-yl)pyrazolo[1,5-a]pyrimidine-3-carboxamide]	+++ (Compounds with a Cisplatin sensitization value of <0.02 μM are marked with “+++.”)
CN1CCN(C(=O)N2CCN(c3c(F)cncc3NC(=O)c3c(N)nn4cc(F)cnc34)CC2)CC1 [I-N-140, 2-amino-6-fluoro-N-(5-fluoro-4-(4-(4-methylpiperazine-1-carbonyl)piperazin-1-yl)pyridin-3-yl)pyrazolo[1,5-a]pyrimidine-3-carboxamide]	+++ (Compounds with a Cisplatin sensitization value of <0.02 μM are marked with “+++.”)
Nc1nn2cc(F)cnc2c1C(=O)Nc1cnccc1N1CCOCC1 [I-N-141, 2-amino-6-fluoro-N-(4-morpholinopyridin-3-yl)pyrazolo[1,5-a]pyrimidine-3-carboxamide]	+++ (Compounds with a Cisplatin sensitization value of <0.02 μM are marked with “+++.”)
CC(C)(C#N)c1cnc2c(C(=O)Nc3cnccc3N3CCN(C4COC4)CC3)c(N)nn2c1 [I-N-142, 2-amino-6-(2-cyanopropan-2-yl)-N-(4-(4-(oxetan-3-yl)piperazin-1-yl)pyridin-3-yl)pyrazolo[1,5-a]pyrimidine-3-carboxamide]	++ (Compounds with a Cisplatin sensitization value >0.02 μM but <0.2 μM are marked with “++.”)
CC(C#N)c1cnc2c(C(=O)Nc3cnccc3N3CCN(C4COC4)CC3)c(N)nn2c1 (centres unmarked) [I-N-143, 2-amino-6-(1-cyanoethyl)-N-(4-(4-(oxetan-3-yl)piperazin-1-yl)pyridin-3-yl)pyrazolo[1,5-a]pyrimidine-3-carboxamide]	++ (Compounds with a Cisplatin sensitization value >0.02 μM but <0.2 μM are marked with “++.”)
CC(C)(C#N)c1cnc2c(C(=O)Nc3cncc(F)c3N3CCN(C4COC4)CC3)c(N)nn2c1 [I-N-144]	+++ (Compounds with a Cisplatin sensitization value of <0.02 μM are marked with “+++.”)
CN(C)S(=O)(=O)C1CCN(c2c(F)cncc2NC(=O)c2c(N)nn3cc(F)cnc23)CC1 [I-N-146, 2-amino-N-(4-(4-(N,N-dimethylsulfamoyl)piperidin-1-yl)-5-fluoropyridin-3-yl)-6-fluoropyrazolo[1,5-a]pyrimidine-3-carboxamide]	+++ (Compounds with a Cisplatin sensitization value of <0.02 μM are marked with “+++.”)
Nc1nn2cc(F)cnc2c1C(=O)Nc1cncc(F)c1N1CCC(N2CCCC2=O)CC1 [I-N-147, 2-amino-6-fluoro-N-(5-fluoro-4-(4-(2-oxopyrrolidin-1-yl)piperidin-1-yl)pyridin-3-yl)pyrazolo[1,5-a]pyrimidine-3-carboxamide]	+++ (Compounds with a Cisplatin sensitization value of <0.02 μM are marked with “+++.”)
CN1CCC(N(C)S(=O)(=O)C2CCN(c3c(F)cncc3NC(=O)c3c(N)nn4cc(F)cnc34)CC2)CC1 [I-N-148, 2-amino-6-fluoro-N-(5-fluoro-4-(4-(N-methyl-N-(1-methylpiperidin-4-yl)sulfamoyl)piperidin-1-yl)pyridin-3-yl)pyrazolo[1,5-a]pyrimidine-3-carboxamide]	+++ (Compounds with a Cisplatin sensitization value of <0.02 μM are marked with “+++.”)
Nc1nn2cc(F)cnc2c1C(=O)Nc1cncc(F)c1N1CCC(CN2CCOCC2)CC1 [I-N-149, 2-amino-6-fluoro-N-(5-fluoro-4-(4-(morpholinomethyl)piperidin-1-yl)pyridin-3-yl)pyrazolo[1,5-a]pyrimidine-3-carboxamide]	+++ (Compounds with a Cisplatin sensitization value of <0.02 μM are marked with “+++.”)
